Data published in US20160150782A1, “USE OF SELECTED PYRIDONE CARBOXAMIDES OR SALTS THEREOF AS ACTIVE SUBSTANCES AGAINST ABIOTIC PLANT STRESS” (BAYER CROPSCIENCE AKTIENGESELLSCHAFT, priority 2013, published 2016).

The compounds below were run on Triticum aestivum (assay: Drought stress test on sprayed greenhouse plants, visual damage scoring (Table 4)). Details: efficacy = reduction in damage intensity, dosage 25 g/ha, spray WP, 600 l/ha water.
Assay type: in vivo
Method: (§1) Seeds of monocotyledonous and dicotyledonous crop plants are sown in sandy loam in plastic or wood-fiber pots, covered with soil or sand and cultivated in a greenhouse under good growth conditions. The test plants are treated at the early leaf stage (BBCH10-BBCH13). To assure uniform water supply before commencement of stress, the potted plants are supplied with water by dam irrigation prior to substance application. The inventive compounds, formulated in the form of wettable powders (WP), are sprayed onto the green parts of the plants as an aqueous suspension at an equivalent water application rate of 600 I/ha with addition of 0.2% wetting agent (e.g. agrotin). Substance application is followed immediately by stress treatment of the plants. For this purpose, the wood-fiber pots are transferred in plastic inserts in order to prevent them from subsequently drying out too quickly. Drought stress is induced by gradual drying out under the following conditions: “Day”: 14 hours with illumination at 26-30° C. “Night”: 10 hours without illumination at 18-20° C. The duration of the respective stress phases is guided mainly by the condition of the stressed control plants. […] The end of the stress phase is followed by an approx. 4-14-day recovery phase, during which the plants are once again kept under good growth conditions in a greenhouse. The duration of the recovery phase is guided mainly by when the trial plants have attained a state which enables visual scoring of potential effects, and is therefore variable. […] The damage intensity is at first assessed in percent.

| SMILES | E (TRZAS) |
| --- | --- |
| COCCNC(=O)c1cc(C)c(C(F)(F)C(F)(F)F)[nH]c1=O [compound 266] | >5 |
| COCC(C)NC(=O)c1cc(C)c(C(F)(F)C(F)(F)F)[nH]c1=O (stereo not drawn) [compound 272] | >5 |
| CCc1cc(C(=O)N(C)CC(=O)OC)c(=O)[nH]c1C(F)(F)C(F)(F)F [compound 770] | >5 |
| CCNC(=O)c1cc(Cl)c(CC)[nH]c1=O [compound 3149] | >5 |
| CCc1[nH]c(=O)c(C(=O)NCCC(C)C)cc1Cl [compound 3170] | >5 |
| CCCc1[nH]c(=O)c(C(=O)NC(C)COC)cc1CC (stereo not drawn) [compound 3639] | >5 |
| CCCc1[nH]c(=O)c(C(=O)NCC)cc1Cl [compound 3699] | >5 |
| CCCc1[nH]c(=O)c(C(=O)N(C)CC(=O)OC)cc1Br [compound 3807] | >5 |
| CCCc1[nH]c(=O)c(C(=O)N(C)CC(=O)OC)cc1I [compound 3917] | >5 |
| CCCNC(=O)c1cc(I)c(CCC)[nH]c1=O [compound 3920] | >5 |
| CCCc1[nH]c(=O)c(C(=O)NCCC(C)C)cc1I [compound 3940] | >5 |

Same assay, conditions: efficacy = reduction in damage intensity, dosage 250 g/ha, spray WP, 600 l/ha water

| SMILES | E (TRZAS) |
| --- | --- |
| Cc1cc(C(=O)NCCC(C)C)c(=O)[nH]c1C(F)(F)C(F)(F)F [compound 243] | >5 |
| COCCCNC(=O)c1cc(C)c(C(F)(F)C(F)(F)F)[nH]c1=O [compound 274] | >5 |
| CCc1cc(C(=O)NC(C)CN(C)C)c(=O)[nH]c1C(F)(F)C(F)(F)Cl (stereo not drawn) [compound 933] | >5 |
| CCc1[nH]c(=O)c(C(=O)NCCC(C)C)cc1C [compound 2840] | >5 |
| COC(=O)CN(C)C(=O)c1cc(C)c(C)[nH]c1=O [compound 4027] | >5 |

Each compound was assayed on Zea mays (corn) (assay: Cold stress test on sprayed greenhouse plants, visual damage scoring (Table 1)). Details: efficacy = reduction in damage intensity, dosage 25 g/ha, spray WP, 600 l/ha water.
Assay type: in vivo
Method: Seeds of monocotyledonous and dicotyledonous crop plants are sown in sandy loam in plastic or wood-fiber pots, covered with soil or sand and cultivated in a greenhouse under good growth conditions. The test plants are treated at the early leaf stage (BBCH10-BBCH13). To assure uniform water supply before commencement of stress, the potted plants are supplied with water by dam irrigation prior to substance application.
The inventive compounds, formulated in the form of wettable powders (WP), are sprayed onto the green parts of the plants as an aqueous suspension at an equivalent water application rate of 600 I/ha with addition of 0.2% wetting agent (e.g. agrotin). Substance application is followed immediately by stress treatment of the plants. For this purpose, the wood-fiber pots are transferred in plastic inserts in order to prevent them from subsequently drying out too quickly.
The duration of the respective stress phases is guided mainly by the condition of the stressed control plants. It is ended (by re-irrigating and transfer to a greenhouse with good growth conditions) as soon as irreversible damage is observed on the stressed control plants.
The end of the stress phase is followed by an approx. 4-14-day recovery phase, during which the plants are once again kept under good growth conditions in a greenhouse. The duration of the recovery phase is guided mainly by when the trial plants have attained a state which enables visual scoring of potential effects, and is therefore variable.
Once this juncture has been reached, the intensities of damage are scored visually in comparison to untreated, unstressed controls of the same age. The damage intensity is at first assessed in percent. These values are then used to calculate the efficacy of the test compounds by the following formula:
[formula] • E: Efficacy=reduction in damage intensity as a result of treatment with test substance • DIs: Damage intensity of the stressed control plants • DIt: Damage intensity of the plants treated with test compound […]

| SMILES | E:E (ZEAMX) |
| --- | --- |
| CC(C)(C)CNC(=O)c1cc(I)c(C(F)(F)F)[nH]c1=O [compound 2223] | >5 |

Same assay, conditions: efficacy = reduction in damage intensity, dosage 250 g/ha, spray WP, 600 l/ha water

| SMILES | E:E (ZEAMX) |
| --- | --- |
| CC(C)C(C)NC(=O)c1cc(Br)c(C(F)C(F)(F)F)[nH]c1=O (stereo not drawn) [compound 2128] | >5 |

Each compound was assayed on Zea mays (corn) (assay: Drought stress test on sprayed greenhouse plants, visual damage scoring (Table 2)). Details: efficacy = reduction in damage intensity, dosage 2.5 g/ha, spray WP, 600 l/ha water.
Assay type: in vivo
Set-up: key: reduction in damage intensity, damage assessed in %
Method: as §1

| SMILES | E (ZEAMX) |
| --- | --- |
| COCCNC(=O)c1cc(Br)c(C)[nH]c1=O [compound 2423] | >5 |

Same assay, conditions: efficacy = reduction in damage intensity, dosage 25 g/ha, spray WP, 600 l/ha water

| SMILES | E (ZEAMX) |
| --- | --- |
| COCCNC(=O)c1cc(C)c(C)[nH]c1=O [compound 46] | >5 |
| COC(=O)CNC(=O)c1cc(C)c(C)[nH]c1=O [compound 59] | >5 |
| CCCNC(=O)c1cc(C)c(C(F)(F)C(F)(F)F)[nH]c1=O [compound 223] | >5 |
| COCCNC(=O)c1cc(C)c(C(F)(F)C(F)(F)F)[nH]c1=O [compound 266] | >5 |
| CCc1cc(C(=O)NCC(=O)OC)c(=O)[nH]c1C(F)(F)F [compound 610] | >5 |
| CCc1cc(C(=O)NC(C)C)c(=O)[nH]c1C(F)(F)C(F)(F)F [compound 664] | >5 |
| CCc1cc(C(=O)NC(C)CC(C)C)c(=O)[nH]c1C(F)(F)C(F)(F)F (stereo not drawn) [compound 696] | >5 |
| CCc1cc(C(=O)NC2CCC2)c(=O)[nH]c1C(F)(F)Cl [compound 777] | >5 |
| CCNC(=O)c1cc(Cl)c(C(F)(F)F)[nH]c1=O [compound 1212] | >5 |
| CC(C)C(C)NC(=O)c1cc(Br)c(C(F)C(F)(F)F)[nH]c1=O (stereo not drawn) [compound 2128] | >5 |
| CCCNC(=O)c1cc(Cl)c(C)[nH]c1=O [compound 2270] | >5 |
| CCc1[nH]c(=O)c(C(=O)N(C)CC(=O)OC)cc1C [compound 2817] | >5 |
| CCCNC(=O)c1cc(I)c(CCC)[nH]c1=O [compound 3920] | >5 |
| CCCc1[nH]c(=O)c(C(=O)NCCC(C)C)cc1I [compound 3940] | >5 |

Same assay, conditions: efficacy = reduction in damage intensity, dosage 250 g/ha, spray WP, 600 l/ha water

| SMILES | E (ZEAMX) |
| --- | --- |
| CCCNC(=O)c1cc(C)c(C)[nH]c1=O [compound 3] | >5 |
| Cc1cc(C(=O)NC(C)CC(C)C)c(=O)[nH]c1C (stereo not drawn) [compound 36] | >5 |
| Cc1cc(C(=O)NCC(=O)O)c(=O)[nH]c1C(F)(F)F [compound 170] | >5 |
| Cc1cc(C(=O)N(C)c2ccccc2)c(=O)[nH]c1C(F)(F)F [compound 219, N,5-Dimethyl-2-oxo-N-phenyl-6-(trifluoromethyl)-1,2-dihydropyridine-3-carboxamide] | >5 |
| CNC(=O)c1cc(C)c(C(F)(F)C(F)(F)F)[nH]c1=O [compound 221] | >5 |
| CCNC(=O)c1cc(C)c(C(F)(F)C(F)(F)F)[nH]c1=O [compound 222] | >5 |
| CCCc1cc(C(=O)NCC(=O)OC)c(=O)[nH]c1C(F)(F)C(F)(F)F [compound 1159] | >5 |
| CC(C)C(C)NC(=O)c1cc(Cl)c(C(F)(F)C(F)(F)Cl)[nH]c1=O (stereo not drawn) [compound 1578] | >5 |
| CN(C)C(=O)c1cc(Br)c(C(F)(Cl)C(F)(F)F)[nH]c1=O (stereo not drawn) [compound 2085] | >5 |
| CC(C)(C)CNC(=O)c1cc(I)c(C(F)(F)F)[nH]c1=O [compound 2223] | >5 |
| Cc1[nH]c(=O)c(C(=O)NCCC(C)C)cc1Cl [compound 2290] | >5 |

Each compound was assayed on Brassica napus (assay: Drought stress test on sprayed greenhouse plants, visual damage scoring (Table 3)). Details: efficacy = reduction in damage intensity, dosage 25 g/ha, spray WP, 600 l/ha water.
Assay type: in vivo
Set-up: key: reduction in damage intensity, damage assessed in %
Method: as §1

| SMILES | E (BRSNS) |
| --- | --- |
| CCOC(=O)C1CCCCN1C(=O)c1cc(C)c(C(F)(F)F)[nH]c1=O (stereo not drawn) [compound 204] | >5 |
| Cc1cc(C(=O)NC2CC2)c(=O)[nH]c1C(F)(F)C(F)(F)F [compound 225] | >5 |
| Cc1cc(C(=O)NCC2CC2)c(=O)[nH]c1C(F)(F)C(F)(F)F [compound 233] | >5 |
| C=C(C)CNC(=O)c1cc(C)c(C(F)(F)C(F)(F)F)[nH]c1=O [compound 247] | >5 |
| Cc1cc(C(=O)NC(C)CC(C)C)c(=O)[nH]c1C(F)(F)C(F)(F)F (stereo not drawn) [compound 256] | >5 |
| Cc1cc(C(=O)NC(C)C(C)C)c(=O)[nH]c1C(F)(F)C(F)(F)F (stereo not drawn) [compound 258] | >5 |
| COCCNC(=O)c1cc(C)c(C(F)(F)C(F)(F)F)[nH]c1=O [compound 266] | >5 |
| CCc1cc(C(=O)NCC(OC)OC)c(=O)[nH]c1C(F)(F)Cl [compound 813] | >5 |
| CCc1cc(C(=O)NC(C)CN(C)C)c(=O)[nH]c1C(F)(F)C(F)(F)Cl (stereo not drawn) [compound 933] | >5 |
| CCOC(=O)C1CCCCN1C(=O)c1cc(Cl)c(C(F)(F)Cl)[nH]c1=O (stereo not drawn) [compound 1744, 1-({5′-chloro-6′-[chloro(difluoro)methyl]-2′-oxo-1′,2′-dihydropyridin-3′-yl}carbonyl)-piperidine-2-carboxylic acid ethyl ester] | >5 |
| CC(C)CC(C)NC(=O)c1cc(Br)c(C(F)(Cl)C(F)(F)F)[nH]c1=O (stereo not drawn) [compound 2016] | >5 |
| CCC(CC)NC(=O)c1cc(Br)c(C(F)(Cl)C(F)(F)F)[nH]c1=O (stereo not drawn) [compound 2020] | >5 |
| CNC(=O)c1cc(I)c(C(F)(F)F)[nH]c1=O [compound 2220] | >5 |
| COCCCNC(=O)c1cc(I)c(C(F)C(F)(F)F)[nH]c1=O (stereo not drawn) [compound 2233] | >5 |
| Cc1cc(C(=O)NC(C)CC(C)C)c(=O)[nH]c1C(F)(Cl)C(F)(F)F (stereo not drawn) [compound 2246] | >5 |

Same assay, conditions: efficacy = reduction in damage intensity, dosage 50 g/ha, spray WP, 600 l/ha water

| SMILES | E (BRSNS) |
| --- | --- |
| C=CCNC(=O)c1cc(Br)c(C(F)(F)F)[nH]c1=O [compound 1785] | >5 |

Same assay, conditions: efficacy = reduction in damage intensity, dosage 250 g/ha, spray WP, 600 l/ha water

| SMILES | E (BRSNS) |
| --- | --- |
| Cc1cc(C(=O)NCC2CC2)c(=O)[nH]c1C [compound 13] | >5 |
| CCC(C)NC(=O)c1cc(C)c(C)[nH]c1=O (stereo not drawn) [compound 29] | >5 |
| CCCC(C)NC(=O)c1cc(C)c(C)[nH]c1=O (stereo not drawn) [compound 32, 5,6-Dimethyl-2-oxo-N-(pentan-2-yl)-1,2-dihydropyridine3-carboxamide] | >5 |
| COCCNC(=O)c1cc(C)c(C)[nH]c1=O [compound 46] | >5 |
| CCc1cc(C(=O)NC2CC2)c(=O)[nH]c1C(F)(F)C(F)(F)F [compound 665, N-Cyclopropyl-5-ethyl-2-oxo-6-(pentafluoroethyl)-1,2-dihydropyridine-3-carboxamide] | >5 |
| CCCc1cc(C(=O)NCCCOC)c(=O)[nH]c1C(F)(F)C(F)(F)F [compound 1154] | >5 |
| C=CCNC(=O)c1cc(Cl)c(C(F)(F)C(F)(F)Cl)[nH]c1=O [compound 1565] | >5 |
| CC(C)C(C)NC(=O)c1cc(Cl)c(C(F)(F)Cl)[nH]c1=O (stereo not drawn) [compound 1688] | >5 |
| Cc1cc(C(=O)NC(C)C(F)(F)F)c(=O)[nH]c1C(F)(F)C(F)(F)C(F)(F)F (stereo not drawn) [compound 2251] | >5 |
